Source: ChEMBL document CHEMBL1157877, “Design, synthesis and biological evaluation of new ionone derivatives as potential neuroprotective agents in cerebral ischemia” (2010)

Tests used:
Assay type in all cases: functional
[1] = tested on: Neuron; assay: Neuroprotective effect against H202-induced Sprague-Dawley rat neuron injury assessed as early apoptic cells by annexin V-propidium iodide staining by flow cytometry (reference value: 3.09% +/- 1.40%)
[2] = tested on: Neuron; assay: Neuroprotective effect against H202-induced Sprague-Dawley rat neuron injury assessed as viable cells by annexin V-propidium iodide staining by flow cytometry (reference value: 93.66%+/-2.19%)
[3] = tested on: Neuron; assay: Neuroprotective effect against H202-induced Sprague-Dawley rat neuron injury assessed as necrotic cells by annexin V-propidium iodide staining by flow cytometry (reference value: 1.02% +/-0.4%)
[4] = tested on: Neuron; assay: Neuroprotective effect against H202-induced Sprague-Dawley rat neuron injury assessed as late apoptic cells by annexin V-propidium iodide staining by flow cytometry (Rvb= 2.22%+/-0.70%)
[5] = tested on: Neuron; assay: Neuroprotective effect against H202-induced Sprague-Dawley rat neuron injury assessed as apoptic cells by annexin V-propidium iodide staining by flow cytometry; parameters: concentration or dose not given beside the values
[6] = tested on: Neuron; assay: Neuroprotective effect against H202-induced Sprague-Dawley rat neuron injury assessed as cell viability by annexin V-propidium iodide staining by flow cytometry

Row | Compound | Activity [1] | Activity [2] | Activity [3] | Activity [4] | Activity [5] | Activity [6]
1 | C[C@]12N[C@H](Cc3ccccc31)c1ccccc12.O=C(O)/C=C\C(=O)O [DIZOCILPINE MALEATE] | 14.9% | 82.45% | 1.96% | 1.56% |  | 
2 | CC1=CCCC(C)(C)C1/C=C/C(C)(O)c1ccccc1 (stereo unspecified) | 62.9% | 6.5% | 0.05% | 30.47% | 62.9% | 
3 | CSc1ccc(C(C)(O)/C=C/C2=C(C)CCCC2(C)C)cc1 (stereo unspecified) | 30.89% | 66.4% | 0.21% | 2.5% |  | 
4 | CCCCCOc1ccc(C(C)(O)/C=C/C2=C(C)CCCC2(C)C)cc1 (stereo unspecified) | 26.48% | 69.25% | 0.26% | 4.02% |  | 
5 | CCOc1ccc(C(C)(O)/C=C/C2=C(C)CCCC2(C)C)cc1 (stereo unspecified) | 50.34% | 33.1% | 0.93% | 15.62% |  | 
6 | CCOc1ccc(C(C)(O)/C=C/C2C(C)=CCCC2(C)C)cc1 (stereo unspecified) | 31.4% | 50.8% | 1.32% | 16.3% |  | 
7 | COc1cc(/C=C/C(=O)CC(=O)/C=C/c2ccc(O)c(OC)c2)ccc1O [CURCUMIN] | 24.15% | 79.9% | 1.89% | 7.3% |  | 
8 | COc1cccc(C(C)(O)/C=C/C2C(C)=CCCC2(C)C)c1 (stereo unspecified) | 25.02% | 61.7% | 3.89% | 9.4% |  | 61.7%
9 | COc1cccc(C(C)(O)/C=C/C2=C(C)CCCC2(C)C)c1 (stereo unspecified) | 4.95% | 82.3% | 7.39% | 5.35% |  | 
10 | COc1ccccc1C(C)(O)/C=C/C1C(C)=CCCC1(C)C (stereo unspecified) | 39.8% | 44.4% | 0.42% | 15.2% |  | 
11 | CC1=CCCC(C)(C)C1/C=C/C(C)(O)c1ccc(C(F)(F)F)cc1 (stereo unspecified) | 72.6% | 5.09% | 0.057% | 22.23% | 72.6% | 
12 | CC1=CCCC(C)(C)C1/C=C/C(C)(O)c1cc(C)ccc1C (stereo unspecified) | 55.1% | 6.4% | 0.045% | 38.3% | 55.1% | 
13 | CC1=CCCC(C)(C)C1/C=C/C(C)(O)c1ccc(C(C)(C)C)cc1 (stereo unspecified) | 62.1% | 7.36% | 0.05% | 30.4% | 62.1% | 
14 | COc1ccc(C(C)(O)/C=C/C2=C(C)CCCC2(C)C)cc1 (stereo unspecified) | 12.2% | 75.25% | 3.42% | 9.06% |  | 75.25%
15 | COc1ccccc1C(C)(O)/C=C/C1=C(C)CCCC1(C)C (stereo unspecified) | 66.1% | 19% | 0.32% | 14.5% |  | 
16 | CCCOc1ccc(C(C)(O)/C=C/C2C(C)=CCCC2(C)C)cc1 (stereo unspecified) | 4.31% | 91.9% | 3% | 0.7% |  | 
17 | COc1ccc(C(C)(O)/C=C/C2C(C)=CCCC2(C)C)cc1 (stereo unspecified) | 41.37% | 37.75% | 1.14% | 19.72% |  | 
18 | CCCCCOc1ccc(C(C)(O)/C=C/C2C(C)=CCCC2(C)C)cc1 (stereo unspecified) | 25.77% | 60.91% | 0.61% | 12.7% |  | 
19 | CCCOc1ccc(C(C)(O)/C=C/C2=C(C)CCCC2(C)C)cc1 (stereo unspecified) | 53.84% | 29% | 0.52% | 16.6% |  | 
20 | CC1=CCCC(C)(C)C1/C=C/C(C)(O)c1ccsc1 (stereo unspecified) | 50.9% | 6.8% | 0.025% | 42.09% | 50.9% | 
21 | COc1ccc(C(C)(O)/C=C/C2C(C)=CCCC2(C)C)cc1OC (stereo unspecified) | 57.36% | 3.9% | 0.065% | 38.5% | 57.36% | 
22 | CSc1ccc(C(C)(O)/C=C/C2C(C)=CCCC2(C)C)cc1 (stereo unspecified) | 50.55% | 33.43% | 0.58% | 15.43% |  | 
